Key:
Assay type in all cases: functional
[1] = tested on: OVCAR-3; test: Growth inhibition of human OVCAR-3 cells by sulforhodamine B assay
[2] = tested on: MCF7; test: Growth inhibition of human MCF7 cells by sulforhodamine B assay
[3] = tested on: NCI-H460; test: Growth inhibition of human NCI-H460 cells by sulforhodamine B assay
[4] = tested on: MDA-MB-231; test: Growth inhibition of human MDA-MB-231 cells by sulforhodamine B assay
[5] = tested on: NCI-H522; test: Growth inhibition of human NCI-H522 cells by sulforhodamine B assay
[6] = tested on: HT-29; test: Growth inhibition of human HT-29 cells by sulforhodamine B assay
[7] = tested on: DMS-273; test: Growth inhibition of human DMS273 cells by sulforhodamine B assay
[8] = tested on: St-4; test: Growth inhibition of human St-4 cells by sulforhodamine B assay
[9] = tested on: ACHN; test: Growth inhibition of human ACHN cells by sulforhodamine B assay
[10] = tested on: OVCAR-5; test: Growth inhibition of human OVCAR5 cells by sulforhodamine B assay
[11] = tested on: OVCAR-8; test: Growth inhibition of human OVCAR8 cells by sulforhodamine B assay
[12] = tested on: LOX IMVI; test: Growth inhibition of human LOXIMVI cells by sulforhodamine B assay
[13] = tested on: A549; test: Growth inhibition of human A549 cells by sulforhodamine B assay
[14] = tested on: PC-3; test: Growth inhibition of human PC3 cells by sulforhodamine B assay
[15] = tested on: MKN-7; test: Growth inhibition of human MKN7 cells by sulforhodamine B assay
[16] = tested on: SF-539; test: Growth inhibition of human SF539 cells by sulforhodamine B assay
[17] = tested on: SK-OV-3; test: Growth inhibition of human SKOV3 cells by sulforhodamine B assay
[18] = tested on: DU-145; test: Growth inhibition of human DU145 cells by sulforhodamine B assay
[19] = Growth inhibition of human HBC4 cells by sulforhodamine B assay
[20] = tested on: MKN-28; test: Growth inhibition of human MKN28 cells by sulforhodamine B assay
[21] = Growth inhibition of human BSY1 cells by sulforhodamine B assay; conditions: BSY-1
[22] = tested on: MKN-45; test: Growth inhibition of human MKN45 cells by sulforhodamine B assay
[23] = Growth inhibition of human RXF631L cells by sulforhodamine B assay; conditions: RXF 631
[24] = Growth inhibition of human HBC5 cells by sulforhodamine B assay
[25] = tested on: SF-295; test: Growth inhibition of human SF295 cells by sulforhodamine B assay
[26] = tested on: SF-268; test: Growth inhibition of human SF268 cells by sulforhodamine B assay
[27] = tested on: DMS-114; test: Growth inhibition of human DMS114 cells by sulforhodamine B assay
[28] = tested on: MKN-74; test: Growth inhibition of human MKN74 cells by sulforhodamine B assay
[29] = tested on: HCT-15; test: Growth inhibition of human HCT15 cells by sulforhodamine B assay
[30] = tested on: NCI-H226; test: Growth inhibition of human NCI-H226 cells by sulforhodamine B assay
[31] = tested on: OVCAR-4; test: Growth inhibition of human OVCAR4 cells by sulforhodamine B assay
[32] = tested on: KM12; test: Growth inhibition of human KM12 cells by sulforhodamine B assay
[33] = tested on: U-251; test: Growth inhibition of human U251 cells by sulforhodamine B assay
[34] = tested on: HCC 2998; test: Growth inhibition of human HCC2998 cells by sulforhodamine B assay
[35] = tested on: SNB-78; test: Growth inhibition of human SNB-78 cells by sulforhodamine B assay
[36] = tested on: SNB-75; test: Growth inhibition of human SNB75 cells by sulforhodamine B assay
[37] = tested on: HCT-116; test: Growth inhibition of human HCT116 cells by sulforhodamine B assay
[38] = tested on: NCI-H23; test: Growth inhibition of human NCI-H23 cells by sulforhodamine B assay
[39] = Growth inhibition of human MKN1 cells by sulforhodamine B assay; conditions: MKN-1

## CCCCCCCCCCCC[C@@H](O)[C@H]1CC[C@H]([C@H](O)CCCCCCCCCC[C@H](F)CC2=C[C@H](C)OC2=O)O1
[1]
  GI50: > 100 µM
[2]
  GI50: 37 µM
[3]
  GI50: > 100 µM
[4]
  GI50: > 100 µM
[5]
  GI50: 16 µM
[6]
  GI50: 92 µM
[7]
  GI50: > 100 µM
[8]
  GI50: > 100 µM
[9]
  GI50: > 100 µM
[10]
  GI50: > 100 µM
[11]
  GI50: > 100 µM
[12]
  GI50: 97 µM
[13]
  GI50: > 100 µM
[14]
  GI50: 84 µM
[15]
  GI50: 19 µM
[16]
  GI50: > 100 µM
[17]
  GI50: > 100 µM
[18]
  GI50: > 100 µM
[19]
  GI50: > 100 µM
[20]
  GI50: > 100 µM
[21]
  GI50: 69 µM
[22]
  GI50: 43 µM
[23]
  GI50: > 100 µM
[24]
  GI50: > 100 µM
[25]
  GI50: 31 µM
[26]
  GI50: > 100 µM
[27]
  GI50: 0.46 µM
[28]
  GI50: > 100 µM
[29]
  GI50: > 100 µM
[30]
  GI50: 40 µM
[31]
  GI50: > 100 µM
[32]
  GI50: > 100 µM
[33]
  GI50: > 100 µM
[34]
  GI50: > 100 µM
[35]
  GI50: > 100 µM
[36]
  GI50: 58 µM
[37]
  GI50: 27 µM
[38]
  GI50: 5.1 µM
[39]
  GI50: > 100 µM

## CCCCCCCCCCCC[C@@H](O)[C@H]1CC[C@H]([C@H](O)CCCCCCCCCC[C@@H](O)CC2=C[C@H](C)OC2=O)O1 [MURISOLIN]
[1]
  GI50: 6.9 µM
[2]
  GI50: 3.9 µM
[3]
  GI50: > 100 µM
[4]
  GI50: > 100 µM
[5]
  GI50: 3.6 µM
[6]
  GI50: > 100 µM
[7]
  GI50: 72 µM
[8]
  GI50: 41 µM
[9]
  GI50: > 100 µM
[10]
  GI50: > 100 µM
[11]
  GI50: 38 µM
[12]
  GI50: 1.9 µM
[13]
  GI50: 96 µM
[14]
  GI50: 17 µM
[15]
  GI50: 0.7 µM
[16]
  GI50: 88 µM
[17]
  GI50: > 100 µM
[18]
  GI50: > 100 µM
[19]
  GI50: > 100 µM
[20]
  GI50: 2.8 µM
[21]
  GI50: 8.3 µM
[22]
  GI50: > 100 µM
[23]
  GI50: 40 µM
[24]
  GI50: 9.7 µM
[25]
  GI50: 7.3 µM
[26]
  GI50: > 100 µM
[27]
  GI50: < 0.01 µM
[28]
  GI50: 4.6 µM
[29]
  GI50: 51 µM
[30]
  GI50: 29 µM
[31]
  GI50: 6.9 µM
[32]
  GI50: > 100 µM
[33]
  GI50: 7.3 µM
[34]
  GI50: > 100 µM
[35]
  GI50: 78 µM
[36]
  GI50: 39 µM
[37]
  GI50: 3.7 µM
[38]
  GI50: 0.22 µM
[39]
  GI50: 20 µM

## CCCCCCCCCCCC[C@@H](O)[C@H]1CC[C@H]([C@H](O)CCCCCCCCCCCCC2=C[C@H](C)OC2=O)O1 [REL-SOLAMIN]
[1]
  GI50: > 100 µM
[2]
  GI50: 71 µM
[3]
  GI50: > 100 µM
[4]
  GI50: > 100 µM
[5]
  GI50: 58 µM
[6]
  GI50: > 100 µM
[7]
  GI50: > 100 µM
[8]
  GI50: > 100 µM
[9]
  GI50: > 100 µM
[10]
  GI50: > 100 µM
[11]
  GI50: > 100 µM
[12]
  GI50: 29 µM
[13]
  GI50: > 100 µM
[14]
  GI50: > 100 µM
[15]
  GI50: 13 µM
[16]
  GI50: > 100 µM
[17]
  GI50: > 100 µM
[18]
  GI50: > 100 µM
[19]
  GI50: > 100 µM
[20]
  GI50: 14 µM
[21]
  GI50: > 100 µM
[22]
  GI50: > 100 µM
[23]
  GI50: > 100 µM
[24]
  GI50: > 100 µM
[25]
  GI50: 40 µM
[26]
  GI50: > 100 µM
[27]
  GI50: 4.3 µM
[28]
  GI50: > 100 µM
[29]
  GI50: > 100 µM
[30]
  GI50: > 100 µM
[31]
  GI50: > 100 µM
[32]
  GI50: > 100 µM
[33]
  GI50: > 100 µM
[34]
  GI50: > 100 µM
[35]
  GI50: > 100 µM
[36]
  GI50: > 100 µM
[37]
  GI50: > 100 µM
[38]
  GI50: 73 µM
[39]
  GI50: > 100 µM

## CCCCCCCCCCCC[C@@H](O)[C@H]1CC[C@H]([C@H](O)CCCCCCCCCC[C@@H](F)CC2=C[C@H](C)OC2=O)O1
[1]
  GI50: > 100 µM
[2]
  GI50: 56 µM
[3]
  GI50: > 100 µM
[4]
  GI50: > 100 µM
[5]
  GI50: 25 µM
[6]
  GI50: > 100 µM
[7]
  GI50: > 100 µM
[8]
  GI50: 74 µM
[9]
  GI50: > 100 µM
[10]
  GI50: > 100 µM
[11]
  GI50: 62 µM
[12]
  GI50: 6.5 µM
[13]
  GI50: > 100 µM
[14]
  GI50: > 100 µM
[15]
  GI50: 0.96 µM
[16]
  GI50: > 100 µM
[17]
  GI50: > 100 µM
[18]
  GI50: > 100 µM
[19]
  GI50: > 100 µM
[20]
  GI50: 41 µM
[21]
  GI50: > 100 µM
[22]
  GI50: > 100 µM
[23]
  GI50: > 100 µM
[24]
  GI50: > 100 µM
[25]
  GI50: 37 µM
[26]
  GI50: > 100 µM
[27]
  GI50: 0.26 µM
[28]
  GI50: > 100 µM
[29]
  GI50: > 100 µM
[30]
  GI50: 58 µM
[31]
  GI50: > 100 µM
[32]
  GI50: > 100 µM
[33]
  GI50: > 100 µM
[34]
  GI50: > 100 µM
[35]
  GI50: > 100 µM
[36]
  GI50: 84 µM
[37]
  GI50: 2 µM
[38]
  GI50: 23 µM
[39]
  GI50: > 100 µM

Source: ChEMBL document CHEMBL1152187, “Synthesis of C4-fluorinated solamins and their growth inhibitory activity against human cancer cell lines” (2008)
